Each structure is given as a SMILES string.

The experiment deals with T1, recombinant human FAAH (rhFAAH) (Homo sapiens, UniProt O00519).
T1 construct: purchased Cayman Chemical (Ann Arbor, MI, USA)
T1 sequence (O00519 1-579): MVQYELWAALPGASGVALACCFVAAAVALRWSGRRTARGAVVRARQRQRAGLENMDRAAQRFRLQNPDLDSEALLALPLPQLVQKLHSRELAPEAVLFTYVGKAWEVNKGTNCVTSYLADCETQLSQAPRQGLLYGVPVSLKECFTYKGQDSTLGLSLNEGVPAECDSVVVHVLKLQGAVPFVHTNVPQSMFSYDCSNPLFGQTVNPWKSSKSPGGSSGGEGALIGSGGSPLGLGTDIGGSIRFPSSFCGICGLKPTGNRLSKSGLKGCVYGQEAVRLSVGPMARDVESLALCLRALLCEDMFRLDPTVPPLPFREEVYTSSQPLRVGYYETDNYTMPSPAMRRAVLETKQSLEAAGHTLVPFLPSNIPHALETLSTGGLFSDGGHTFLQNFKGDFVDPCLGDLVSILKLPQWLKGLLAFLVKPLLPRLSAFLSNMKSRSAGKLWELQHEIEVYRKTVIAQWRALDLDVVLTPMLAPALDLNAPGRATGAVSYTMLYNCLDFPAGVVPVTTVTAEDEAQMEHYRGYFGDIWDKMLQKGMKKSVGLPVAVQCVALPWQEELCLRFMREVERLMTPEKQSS
Nature of the experiment: FAAH substrate evaluation (acid metabolite formation). It counts as biochemical. Conditions: 0.5 ng/L rhFAAH, 1 μM test compound, Tris-EDTA buffer pH 8.0, room temperature, 0-60 minutes. As to the method:
Purified recombinant human FAAH (rhFAAH) was purchased from Cayman Chemical (Ann Arbor, MI, USA). The total volume for each incubation was 400 μL containing a final 0.5 ng/L rhFAAH, 1 μM test compound, 1.25% ethanol or 1 μM PF-3845 (FAAH inhibitor), and 0.1% bovine serum albumin in Tris-EDTA buffer at pH 8.0). The positive control was LL-341001. The incubation was conducted at the room temperature. At 0, 5, 15, 30 and 60 minutes, an aliquot of 30 μL reaction mixtures was removed and mixed with 300 μL acetonitrile containing 5 ng/mL terfenadine and 10 ng/mL tolbutamide as internal standards to quench the reaction. The resulting mixture was centrifuged at 4000 rpm, 4° C. for 15 minutes, and 100 μL supernatant was ready for LC-MS/MS analysis to measure the formation of acid metabolite.
Acquity Ultra Performance LC system from Waters was used for sample analysis. The chromatography was performed on a reverse phase Kinetex 2.6 μm C18 column, 2.1×30 mm, 100 Å. The mobile phase A comprised of 0.1% formic acid in water and mobile phase B comprised of 0.1% formic acid in acetonitrile with a 2-min run time at the flow rate of 0.8 mL/min for the acid metabolite from positive control or a 1.5 min run time at the flow rate of 0.9 mL/min for the acid metabolite of test compounds. The mass spectrometer (API-5500 and API Q Trap 4000 Applied Biosystems/MDS SCIEX Instruments, Framingham, MA, USA) was operated under ESI positive or negative ion MRM mode.
The formation of acid metabolite was monitored and quantified using one calibration point of 1 μM. The observed rate constant (ke) for the acid metabolite formation was calculated by plotting the metabolite concentration versus time of incubation with the slope being ke and is shown in Table 2.
In the case of `COc1ccc(NC(=O)c2ccc3nc(-c4cc(Cl)cc(Cl)c4)oc3c2)nn1` [Compound 37], the “ke (observed rate constant for the acid metabolite formation)” value (from here on “ke”) is “B (ke is less than 1.0 and more than or equal to 0.1)”.
On to `CCc1cc(/C(C)=N/OCc2ccc(C3CCCCC3)c(C(F)(F)F)c2)ccc1CN1CC(C(=O)Nc2ccncc2)C1` [Compound 38], for which the “ke” value is reported as “A (ke is more than or equal to 1.0)”.
In the case of `CCc1cc(/C(C)=N/OCc2ccc(C3CCCCC3)c(C(F)(F)F)c2)ccc1CN1CC(C(=O)NCCCF)C1` [Compound 39] it was “B (ke is less than 1.0 and more than or equal to 0.1)”; in that of `Cc1noc(-c2ccc(CSCCC(=O)N[C@@H]3C[C@H]3F)cc2)c1NC(=O)OC(C)c1ccccc1Cl` (stereo partly drawn) [Compound 40], “C (ke is less than 0.1 and more than 0)”.
To `Cc1noc(-c2ccc(CSCCC(=O)Nc3cccnn3)cc2)c1NC(=O)O[C@H](C)c1ccccc1Cl` [Compound 41] belongs “B (ke is less than 1.0 and more than or equal to 0.1)”; to `O=C(C[C@H]1CCc2c1[nH]c1ccc(OCc3ccc(C4CCCC4)c(C(F)(F)F)c3)cc21)Nc1cccnn1` [Compound 43], “B (ke is less than 1.0 and more than or equal to 0.1)”.
On to `Cc1noc(-c2ccc(CSCCC(=O)Nc3ccncc3)cc2)c1NC(=O)OC(C)c1ccccc1Cl` (stereo not drawn) [Compound 44], for which the “ke” value is “B (ke is less than 1.0 and more than or equal to 0.1)”.
To `Cc1noc(-c2ccc(CSCCC(=O)N[C@H]3C[C@H]3F)cc2)c1NC(=O)OC(C)c1ccccc1Cl` (stereo partly drawn) [Compound 45] belongs “C (ke is less than 0.1 and more than 0)”; to `Cc1noc(-c2ccc(CSCCC(=O)NCCCF)cc2)c1NC(=O)O[C@H](C)c1ccccc1Cl` [Compound 46], “C (ke is less than 0.1 and more than 0)”.
With `O=C(C[C@H]1CCc2c1[nH]c1ccc(OCc3ccc(C4CCCC4)c(C(F)(F)F)c3)cc21)Nc1ccncc1` [Compound 47], the “ke” value is “D (ke is 0)”.
In the case of `CCCCC[C@H](O)CC[C@@H]1[C@H]2Cc3cccc(OCC(=O)N[C@H]4C[C@@H]4F)c3C[C@H]2C[C@H]1O` [Compound 48] it was “B (ke is less than 1.0 and more than or equal to 0.1)”; in that of `CCCCC[C@H](O)CC[C@@H]1[C@H]2Cc3cccc(OCC(=O)N[C@H]4C[C@H]4F)c3C[C@H]2C[C@H]1O` [Compound 49], “C (ke is less than 0.1 and more than 0)”.
For the molecule `O=C(Nc1ccnnc1)c1ccc2nc(-c3cc(Cl)cc(Cl)c3)oc2c1` [Compound 50], the “ke” value was “A (ke is more than or equal to 1.0)”.
As for `COc1ccc(NC(=O)c2ccc3nc(-c4cc(Cl)cc(Cl)c4)oc3c2)cn1` [Compound 51], the “ke” value is on record as “A (ke is more than or equal to 1.0)”.
In the case of `O=C(Nc1cccnc1)c1ccc2nc(-c3cc(Cl)cc(Cl)c3)oc2c1` [Compound 52] it was “A (ke is more than or equal to 1.0)”.
In the case of `CCCCC[C@H](O)CC[C@@H]1[C@H]2Cc3cccc(OCC(=O)Nc4cccnn4)c3C[C@H]2C[C@H]1O` [Compound 53] it was “A (ke is more than or equal to 1.0)”; in that of `CCCCC[C@H](O)CC[C@@H]1[C@H]2Cc3cccc(OCC(=O)Nc4ccncc4)c3C[C@H]2C[C@H]1O` [Compound 55], “A (ke is more than or equal to 1.0)”; in that of `O=C(Nc1ccncc1)c1ccc2nc(-c3cc(Cl)cc(Cl)c3)oc2c1` [Compound 57], “D (ke is 0)”.

Source of the values: US20240261414A1, “FATTY ACID AMIDE HYDROLASE (FAAH) CLEAVABLE PRODRUGS OF BRAIN TARGETING ACTIVES AND COMBINATION WITH PERIPHERALLY RESTRICTED FAAH INHIBITORS” (Autobahn Therapeutics, Inc., priority 2021, published 2024).
